Assay results as given in patent US9365502B2, “Neuroactive substituted cyclopenta[b]phenanthrenes as modulators for GABA type-A receptors” (priority 2013, dated 2016).
Where two headings read alike, the source gives them in different places.

Assays:
[1] = system: Tadpole; experiment: Tadpole loss of righting (LRR) and loss of swimming (LSR) reflexes; type: in vivo; settings: ± SEM
Procedure: Table 3 discloses the anesthetic effects of the compounds of the present disclosure. In particular, the anesthetic effect of the compounds of the present disclosure on Loss of Righting Reflex (LRR) and Loss of Swimming Reflex (LSR).
Methods used are known in the art (see Jiang, X., et al.). Error limits are calculated as standard error of the mean (N=10 or more animals at each of five or more different concentrations).

[2] = biological target: picrotoxin binding site on GABAA receptors; experiment: [35S]-TBPS displacement (inhibition of [35S]-TBPS binding); settings: mean ± SEM, duplicate experiments performed in triplicate
Procedure: The IC50 values for non-competitive displacers of [^35S]-TBPS from the picrotoxin binding site on GABAA receptors are reported in Table 1.
Results presented are from duplicate experiments performed in triplicate. Error limits are calculated as standard error of the mean. Methods used are known in the art (see Jiang, X., et al., Neurosteroid analogues. 9. Conformationally constrained pregnanes: structure-activity studies of 13,24-cyclo-18,21-dinorcholane analogues of the GABA modulatory and anesthetic steroids (3α,5α)- and […]. J. Med. Chem., 46: 5334-48 (2003)—the contents of which are hereby incorporated by reference in their entirety).

[3] = biological target: rat α1β2γ2L type GABAA receptors expressed in Xenopus laevis oocytes (Rattus norvegicus (Rat), UniProt P62813+P63138, INS375LLRMFSFK); experiment: Potentiation of GABA-mediated chloride currents, oocyte electrophysiology; type: cell-based; settings: ± SEM; for Oocyte electrophysiology 0.1 μM (ratio of currents in presence/absence of compound): 0.1 μM compound; for Oocyte electrophysiology 0.1 μM (ratio of currents in presence/absence of compound) / Oocyte electrophysiology 1.0 μM (ratio of currents in presence/absence of compound) / Oocyte electrophysiology 10 μM (ratio of currents in presence/absence of compound): 2 μM GABA, N>=4; for Oocyte electrophysiology 1.0 μM (ratio of currents in presence/absence of compound): 1.0 μM compound; for Oocyte electrophysiology (gating) 10 μM (ratio of compound only current/2 μM GABA current): 10 μM compound in the absence of GABA; for Oocyte electrophysiology 10 μM (ratio of currents in presence/absence of compound): 10 μM compound
Procedure: The compounds of the present disclosure were evaluated for the ability to potentiate chloride currents mediated by 2 μM GABA at rat α1β2γ2L type GABAA receptors expressed in Xenopus laevis oocytes and the results are shown in Table 2.
The GABA concentration used for the control response was 2 μM. Each compound was evaluated on at least four different oocytes at the concentrations indicated, and the results reported are the ratio of currents measured in the presence/absence of added compound. Gating represents direct current gated by 10 μM compound in the absence of GABA, and this current is reported as the ratio of compound only current/2 μM GABA current. Error limits are calculated as standard error of the mean (N≧4). Methods used are known in the art (see Jiang, X., et al.).

[4] = loss of righting reflex, read-out: Tadpole LRR EC50
[5] = loss of swimming reflex, read-out: Tadpole LSR EC50

Compound	melting point [°C]	EC50 [1, 4] [nM]	EC50 [1, 5] [nM]	IC50 [2] [nM]	Oocyte electrophysiology 0.1 μM (ratio of currents in presence/absence of compound) [3]	Oocyte electrophysiology 1.0 μM (ratio of currents in presence/absence of compound) [3]	Oocyte electrophysiology (gating) 10 μM (ratio of compound only current/2 μM GABA current) [3]	Oocyte electrophysiology 10 μM (ratio of currents in presence/absence of compound) [3]
C[C@]12C[C@H]3CC[C@@H]4C[C@@H](O)CC[C@H]4[C@@H]3C[C@@H]1CC[C@@H]2C#N	162 to 164							
CC(=O)[C@H]1CC[C@H]2C[C@@H]3[C@H](CC[C@@H]4C[C@@H](O)CC[C@H]43)C[C@@]21C	131 to 133							
C[C@@]12CC[C@H](O)C[C@H]1CC[C@@H]1C[C@]3(C)C(=O)CC[C@H]3C[C@H]12	179 to 181							
C[C@]12CC(=O)C[C@@H]1C[C@H]1[C@@H](CC[C@H]3C[C@H](O)CC[C@@H]31)C2	165 to 166							
C[C@@]12C[C@@H]3CC[C@@H]4C[C@H](O)CC[C@@H]4[C@H]3C[C@H]1CC[C@]21CO1	163 to 165							
C[C@]12C[C@H]3CC[C@@H]4C[C@@H](O)CC[C@H]4[C@@H]3C[C@@H]1CC[C@@H]2[N+](=O)[O-]	157 to 159							
C[C@]12C[C@H]3CC[C@@H]4C[C@@H](O)CC[C@H]4[C@@H]3C[C@@H]1CC/C2=C/C#N [MQ-31]		430 ± 80	1040	61 ± 4	1.49 ± 0.09	3.93 ± 0.20	0.02 ± 0.02	8.25 ± 0.71
C[C@]12C[C@H]3CC[C@@H]4C[C@@H](O)CC[C@H]4[C@@H]3C[C@@H]1CC/C2=C\C#N [MQ-32]		360 ± 130	1070	147 ± 9	1.64 ± 0.02	3.21 ± 0.13	0.12 ± 0.01	8.77 ± 1.65
C[C@]12C[C@H]3CC[C@@H]4C[C@@H](O)CC[C@H]4[C@@H]3C[C@@H]1CC[C@@H]2[N+](=O)[O-] [MQ-33]		240 ± 10	550 ± 10	62 ± 6	1.68 ± 0.10	5.30 ± 0.75	0.02 ± 0.01	9.08 ± 1.83
C[C@]12C[C@H]3CCC4C[C@@H](O)CC[C@H]4[C@@H]3C[C@@H]1CCC2=O (some centres unmarked) [MQ-36]		7900 ± 4450	> 30000	1730	1.11 ± 0.09	1.22 ± 0.05	−0.06 ± 0.06	3.81 ± 0.45
C[C@]12C[C@H]3CC[C@@H]4C[C@@H](O)CCC4C3CC1CC[C@@]21CO1 (some centres unmarked) [MQ-37]		160	540 ± 10	46 ± 4	1.91 ± 0.17	16.12 ± 2.24	0.54 ± 0.44	27.57 ± 5.45
C[C@]12C[C@H]3CC[C@@H]4C[C@@H](O)CC[C@H]4[C@@H]3C[C@@H]1CC[C@@H]2C#N [MQ-38]		380 ± 60	870	52 ± 7	1.51 ± 0.19	6.92 ± 1.29	0.51 ± 0.48	12.50 ± 1.98
CC(=O)[C@H]1CCC2CC3C(CCC4C[C@H](O)CCC43)C[C@@]21C (some centres unmarked) [MQ-39]		340	1070	65 ± 7	1.32 ± 0.03	3.82 ± 0.36	0.03 ± 0.0	7.91 ± 0.64
C[C@@]12CC3CC[C@H]4C[C@H](O)CCC4C3CC1CCC2=O (some centres unmarked) [MQ-47]		3760 ± 5220	> 10000	1330	1.10 ± 0.20	1.50 ± 0.28	−0.01 ± 0.03	6.42 ± 1.11
C[C@]12CC(=O)CC1CC1C(CCC3C[C@H](O)CCC31)C2 (some centres unmarked) [MQ-48]		2390 ± 280	7490	282 ± 197	1.03 ± 0.01	1.64 ± 0.06	0.01 ± 0.0	7.10 ± 1.51
C[C@@]12CC3CCC4C[C@H](O)CCC4C3CC1CC[C@H]2C#N (some centres unmarked) [MQ-49]		2400 ± 760	5480 ± 120	1580	0.92 ± 0.01	1.02 ± 0.01	0.02 ± 0.01	1.86 ± 0.06
CC(=O)[C@@H]1CC[C@@H]2C[C@H]3[C@@H](CC[C@H]4C[C@H](O)CC[C@@H]43)C[C@]21C [MQ-50]		2010 ± 1300	10000	1060	1.02 ± 0.01	1.18 ± 0.02	0.0 ± 0.0	1.98 ± 0.07
C[C@@]12C[C@@H]3CC[C@@H]4C[C@H](O)CC[C@@H]4[C@H]3C[C@H]1CCC2=O [MQ-51]		> 10000	> 10000	5860	0.97 ± 0.03	1.02 ± 0.02	0.08 ± 0.08	1.59 ± 0.11
C[C@@]12CC3CCC4C[C@H](O)CCC4C3CC1CC[C@]21CO1 (some centres unmarked) [MQ-54]		3340 ± 110	5480 ± 200	1990	1.01 ± 0.05	4.03 ± 0.31	0.05 ± 0.01	11.41 ± 1.18
C[C@@]12CC[C@H](O)C[C@@H]1CC[C@@H]1C[C@]3(C)C(=O)CCC3C[C@H]12 (some centres unmarked) [MQ-83]		2190 ± 440	5480 ± 120	748 ± 103	0.85 ± 0.07	1.03 ± 0.06	0.1 ± 0.2	6.35 ± 0.81
C[C@@]12CC[C@@H](O)C[C@@H]1CC[C@H]1C[C@@]3(C)[C@H](CC[C@@]34CO4)C[C@@H]12 [MQ-85]		350 ± 20	550 ± 10	29 ± 7	2.08 ± 0.23	9.59 ± 1.77	0.10 ± 0.02	17.18 ± 3.31
C[C@@]12CC[C@H](O)C[C@H]1CC[C@@H]1C[C@]3(C)C(C#N)=CCC3CC12 (some centres unmarked) [MQ-86]		380 ± 50	550 ± 10	43 ± 3	2.25 ± 0.11	10.95 ± 1.05	0.16 ± 0.03	19.64 ± 2.06
C[C@@]12CC[C@H](O)C[C@H]1CC[C@@H]1C[C@@]3(C)C(CC[C@@H]3C#N)CC12 (some centres unmarked) [MQ-87]		100 ± 10	330	14 ± 2	1.93 ± 0.14	10.95 ± 0.55	0.04 ± 0.01	16.10 ± 0.87
